{"source": "paper PMC7584622", "about": "“Sensing of autoinducer-2 by functionally distinct receptors in prokaryotes” (Nature Communications, 2020)", "key": {"P. aeruginosa PAO1 [1]": {"tested_on": "P. aeruginosa PAO1", "test": "quantitative capillary chemotaxis assay", "conditions": "100 μM DPD/AI-2, Fig. 1d"}, "PctC-LBD": {"biological_target": "PctC-LBD (Pseudomonas aeruginosa, UniProt Q9HW93)", "sequence (Q9HW93 32-279)": "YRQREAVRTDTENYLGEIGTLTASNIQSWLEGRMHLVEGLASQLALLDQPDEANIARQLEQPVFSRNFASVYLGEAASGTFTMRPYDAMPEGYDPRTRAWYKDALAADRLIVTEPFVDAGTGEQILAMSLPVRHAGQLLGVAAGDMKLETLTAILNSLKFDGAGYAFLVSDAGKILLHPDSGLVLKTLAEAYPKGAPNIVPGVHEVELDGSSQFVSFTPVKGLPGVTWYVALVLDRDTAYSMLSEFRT", "test": "ITC binding to PctC-LBD", "conditions": "700 μM DPD/AI-2 into 70 μM PctC-LBD, minor heats, not certain whether they reflect binding", "quoted_text": "ITC experiments were performed at 20 °C using a Nano ITC Standard Volume isothermal calorimeter (TA Instruments, New Castle, DE). […] The stirring speed was 200 r.p.m. and 25 injections were used each experiment. Three independent experiments were performed for each sample. […] ITC data were analyzed and fit with a one-site independent binding model using the NanoAnalyze software version 3.4 provided by the manufacturer, with the heat of dilution subtracted from the experimental titrations before data analysis."}, "PctA-LBD M111A": {"biological_target": "T1, PctA-LBD M111A (Pseudomonas aeruginosa, UniProt G3XD24, M111A)", "T1 construct": "Amino acids 30-278 and 36-360 of PctA and TlpQ, respectively; His6 (N, cleaved yes); made in house; host or cells: E. coli BL21(DE3) (pET-28a derivative)", "T1 sequence (G3XD24 30-278 M111A)": "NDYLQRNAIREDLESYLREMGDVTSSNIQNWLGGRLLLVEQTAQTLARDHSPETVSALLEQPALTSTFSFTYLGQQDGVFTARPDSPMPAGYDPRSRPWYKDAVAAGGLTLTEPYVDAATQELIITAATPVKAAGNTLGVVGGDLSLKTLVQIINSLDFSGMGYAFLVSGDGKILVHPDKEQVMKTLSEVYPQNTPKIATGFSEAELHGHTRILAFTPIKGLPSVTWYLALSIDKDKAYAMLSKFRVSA", "test": "biochemical", "format": "binding", "conditions": "PctA-LBD M111A 70 μM; DPD/AI-2 700 μM"}, "PctA-LBD Y121A": {"biological_target": "T2, PctA-LBD Y121A (Pseudomonas aeruginosa, UniProt G3XD24, Y121A)", "T2 construct": "Amino acids 30-278 and 36-360 of PctA and TlpQ, respectively; His6 (N, cleaved yes); made in house; host or cells: E. coli BL21(DE3) (pET-28a derivative)", "T2 sequence (G3XD24 30-278 Y121A)": "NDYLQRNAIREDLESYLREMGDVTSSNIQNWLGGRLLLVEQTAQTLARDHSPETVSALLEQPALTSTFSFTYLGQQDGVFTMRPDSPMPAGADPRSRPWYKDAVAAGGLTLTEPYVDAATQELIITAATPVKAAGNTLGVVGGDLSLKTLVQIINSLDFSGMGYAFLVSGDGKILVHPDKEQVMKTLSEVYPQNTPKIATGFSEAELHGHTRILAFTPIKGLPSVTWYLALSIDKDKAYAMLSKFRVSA", "test": "biochemical", "format": "binding", "conditions": "PctA-LBD Y121A 70 μM; DPD/AI-2 700 μM"}, "PctA-LBD Y144A": {"biological_target": "T3, PctA-LBD Y144A (Pseudomonas aeruginosa, UniProt G3XD24, Y144A)", "T3 construct": "Amino acids 30-278 and 36-360 of PctA and TlpQ, respectively; His6 (N, cleaved yes); made in house; host or cells: E. coli BL21(DE3) (pET-28a derivative)", "T3 sequence (G3XD24 30-278 Y144A)": "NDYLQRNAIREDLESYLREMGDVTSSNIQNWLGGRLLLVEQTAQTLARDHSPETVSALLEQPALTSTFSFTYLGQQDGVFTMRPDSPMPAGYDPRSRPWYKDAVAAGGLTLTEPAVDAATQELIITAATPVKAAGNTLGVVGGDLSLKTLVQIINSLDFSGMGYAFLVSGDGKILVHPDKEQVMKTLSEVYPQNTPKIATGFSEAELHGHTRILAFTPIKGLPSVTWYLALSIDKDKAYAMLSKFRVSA", "test": "biochemical", "format": "binding", "conditions": "PctA-LBD Y144A 70 μM; DPD/AI-2 700 μM"}, "PctA-LBD A147F": {"biological_target": "T4, PctA-LBD A147F (Pseudomonas aeruginosa, UniProt G3XD24, A147F)", "T4 construct": "Amino acids 30-278 and 36-360 of PctA and TlpQ, respectively; His6 (N, cleaved yes); made in house; host or cells: E. coli BL21(DE3) (pET-28a derivative)", "T4 sequence (G3XD24 30-278 A147F)": "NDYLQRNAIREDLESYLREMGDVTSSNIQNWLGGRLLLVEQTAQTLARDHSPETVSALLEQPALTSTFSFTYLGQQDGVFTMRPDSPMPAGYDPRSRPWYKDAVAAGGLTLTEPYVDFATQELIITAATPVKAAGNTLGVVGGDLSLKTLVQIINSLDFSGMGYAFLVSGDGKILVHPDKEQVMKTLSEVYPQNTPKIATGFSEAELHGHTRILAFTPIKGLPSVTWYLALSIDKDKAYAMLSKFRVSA", "test": "biochemical", "format": "binding", "conditions": "PctA-LBD A147F 70 μM; DPD/AI-2 700 μM"}, "P. aeruginosa PAO1 [2]": {"tested_on": "P. aeruginosa PAO1", "test": "confocal laser-scanning microscopy of static biofilms (biovolume, COMSTAT)", "conditions": "100 nM DPD/AI-2", "quoted_text": "Biofilms were stained with crystal violet and quantified using optical density measurement after incubation at 37 °C for 48 h. […] Images were reconstructed using the Imaris 9.0 software package (Bitplane, AG) (Supplementary Fig. 6) and biofilm biovolumes were quantified using COMSTAT (www.comstat.dk). Biovolumes were calculated from three biological replicates and each biological replicate was derived from an average of five confocal images.\nFor confocal laser-scanning microscopy and image analysis of static biofilms, overnight cultures of P. aeruginosa strains carrying pME6032-mCherry were diluted with TSB medium to an OD600 of 0.01 (~2 × 10^7 CFU ml^−1). […] The cultures were incubated at 37 °C under static conditions and biofilms were visualized using a Revolution XD laser-scanning confocal microscope (Andor, Belfast, Northern Ireland) after 1, 10, and 19 h. The excitation/emission wavelength for mCherry was 568/590 nm. Images were reconstructed using the Imaris 9.0 software package (Bitplane, AG) and the biovolumes were calculated using COMSTAT 2.1[46] plugin in ImageJ software (version 1.48). Biovolumes were measured and calculated from three biological replicates and each biological replicate was derived from an average of five confocal images."}, "PctA-LBD R126A": {"biological_target": "T5, PctA-LBD R126A (Pseudomonas aeruginosa, UniProt G3XD24, R126A)", "T5 construct": "Amino acids 30-278 and 36-360 of PctA and TlpQ, respectively; His6 (N, cleaved yes); made in house; host or cells: E. coli BL21(DE3) (pET-28a derivative)", "T5 sequence (G3XD24 30-278 R126A)": "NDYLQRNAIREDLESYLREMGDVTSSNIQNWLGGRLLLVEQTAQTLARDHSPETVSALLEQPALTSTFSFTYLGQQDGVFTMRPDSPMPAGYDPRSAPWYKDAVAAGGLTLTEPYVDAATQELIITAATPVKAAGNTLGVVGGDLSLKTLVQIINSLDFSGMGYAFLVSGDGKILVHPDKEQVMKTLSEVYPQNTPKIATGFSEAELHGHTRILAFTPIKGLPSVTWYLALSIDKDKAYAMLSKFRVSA", "test": "biochemical", "format": "binding", "conditions": "PctA-LBD R126A 70 μM; DPD/AI-2 700 μM"}, "LsrB": {"biological_target": "LsrB", "conditions": "established receptor LsrB; cited from earlier work"}, "rpHK1S-Z16": {"tested_on": "rpHK1S-Z16", "test": "in vitro DGC activity assay, c-di-GMP synthesis (HPLC)", "format": "biochemical, R. palustris", "conditions": "100 μM GTP, 30 °C", "description": "The DGC activity of rpHK1S-Z16 was determined by measuring the synthesis of c-di-GMP using an HPLC-based method. […] The reaction was initiated by adding 100 μM GTP and the reaction was allowed to proceed for 0, 30 and 60 min at 30 °C. At indicated time points, 50 μl aliquots were removed and heated at 100 °C for 5 min. Denatured proteins were removed through centrifugation and the supernatants were filtered through a 0.22 μm membrane. Samples were injected into an HPLC (Agilent 1260 infinity II) system equipped with a C18 reversed-phase column and a UV detector. Components were eluted isocratically with 98% A (150 mM Na2HPO4, pH 5.2) and 2% B (acetonitrile) in 15 min at a flow rate of 1 ml min^−1. The detection wavelength was 252 nm. GTP (Sigma, Cat# G8877) and c-di-GMP (Sigma, Cat# SML1228) were run as standards. The levels of synthesized c-di-GMP in the supernatants were determined from the standard curve obtained using known concentrations of c-di-GMP."}, "PctA-LBD": {"biological_target": "T6, PctA-LBD (Pseudomonas aeruginosa, UniProt G3XD24)", "T6 construct": "Amino acids 30-278 and 36-360 of PctA and TlpQ, respectively; His6 (N, cleaved yes); made in house; host or cells: E. coli BL21(DE3) (pET-28a derivative)", "T6 sequence (G3XD24 30-278)": "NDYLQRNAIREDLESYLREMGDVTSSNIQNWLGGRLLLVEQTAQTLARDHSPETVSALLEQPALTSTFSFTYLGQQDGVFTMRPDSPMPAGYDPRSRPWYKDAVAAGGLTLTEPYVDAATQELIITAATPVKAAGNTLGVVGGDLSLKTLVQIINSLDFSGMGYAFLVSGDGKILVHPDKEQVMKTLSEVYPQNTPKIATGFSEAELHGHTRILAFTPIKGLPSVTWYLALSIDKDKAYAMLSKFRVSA", "test": "ITC binding to PctA-LBD", "parameters": "species or system P. aeruginosa", "conditions": "700 μM DPD/AI-2 into 70 μM PctA-LBD (WT); 20 °C; normal conditions; mean ± s.d. of three in text/figure, single experiments in source data"}}, "note": "Values joined by “and” are separate entries in the source; they are usually repeats but may differ in a detail not shown here. Equal entries are not always repeated.", "data": [{"smiles": "CC(=O)C(=O)C(O)CO", "note": "(centres unmarked) [DPD/AI-2, 4,5-dihydroxy-2,3-pentanedione]", "values": [{"measurement": "Cells per capillary", "setting": "P. aeruginosa PAO1 [1]; strain ΔmcpS", "value": "36800 and 35200 and 37500 and 35600 and 39600"}, {"measurement": "Cells per capillary", "setting": "P. aeruginosa PAO1 [1]; strain ΔpctA", "value": "21400 and 23800 and 20800 and 21700 and 21800"}, {"measurement": "Cells per capillary", "setting": "P. aeruginosa PAO1 [1]; strain ΔpctB", "value": "37100 and 39500 and 37300 and 38300 and 35300"}, {"measurement": "Cells per capillary", "setting": "P. aeruginosa PAO1 [1]; strain ΔpctC", "value": "35300 and 37100 and 37200 and 36800 and 35800"}, {"measurement": "Cells per capillary", "setting": "P. aeruginosa PAO1 [1]; strain ΔtlpQ", "value": "26100 and 28500 and 25300 and 27300 and 24300"}, {"measurement": "Kd", "setting": "PctC-LBD", "value": "94 µM and 118 µM and 86 µM"}, {"measurement": "Kd", "setting": "PctA-LBD M111A", "value": "14 µM and 21 µM and 17 µM"}, {"measurement": "Kd", "setting": "PctA-LBD Y121A", "value": "23 µM and 22 µM and 19 µM"}, {"measurement": "Kd", "setting": "PctA-LBD Y144A", "value": "16 µM and 14 µM and 12 µM"}, {"measurement": "Kd", "setting": "PctA-LBD A147F", "value": "11 µM and 10 µM and 12 µM"}, {"measurement": "Biovolume of P. aeruginosa", "setting": "P. aeruginosa PAO1 [2]; WT, 1 h", "value": "28364 μm3 mm-2 and 23058 μm3 mm-2 and 27608 μm3 mm-2"}, {"measurement": "Biovolume of P. aeruginosa", "setting": "P. aeruginosa PAO1 [2]; WT, 10 h", "value": "1281908 μm3 mm-2 and 1109100 μm3 mm-2 and 1052160 μm3 mm-2"}, {"measurement": "Biovolume of P. aeruginosa", "setting": "P. aeruginosa PAO1 [2]; WT, 19 h", "value": "3128446 μm3 mm-2 and 3141281 μm3 mm-2 and 3321156 μm3 mm-2"}, {"measurement": "Biovolume of P. aeruginosa", "setting": "P. aeruginosa PAO1 [2]; ΔpctA, 1 h", "value": "25418 μm3 mm-2 and 25743 μm3 mm-2 and 24604 μm3 mm-2"}, {"measurement": "Biovolume of P. aeruginosa", "setting": "P. aeruginosa PAO1 [2]; ΔpctA, 10 h", "value": "609991 μm3 mm-2 and 657748 μm3 mm-2 and 721040 μm3 mm-2"}, {"measurement": "Biovolume of P. aeruginosa", "setting": "P. aeruginosa PAO1 [2]; ΔpctA, 19 h", "value": "1305959 μm3 mm-2 and 1192157 μm3 mm-2 and 1109432 μm3 mm-2"}, {"measurement": "Biovolume of P. aeruginosa", "setting": "P. aeruginosa PAO1 [2]; ΔpctAΔtlpQ, 1 h", "value": "24520 μm3 mm-2 and 23099 μm3 mm-2 and 23881 μm3 mm-2"}, {"measurement": "Biovolume of P. aeruginosa", "setting": "P. aeruginosa PAO1 [2]; ΔpctAΔtlpQ, 10 h", "value": "372013 μm3 mm-2 and 288390 μm3 mm-2 and 355734 μm3 mm-2"}, {"measurement": "Biovolume of P. aeruginosa", "setting": "P. aeruginosa PAO1 [2]; ΔpctAΔtlpQ, 19 h", "value": "111554 μm3 mm-2 and 108961 μm3 mm-2 and 114758 μm3 mm-2"}, {"measurement": "Biovolume of P. aeruginosa", "setting": "P. aeruginosa PAO1 [2]; ΔtlpQ, 1 h", "value": "22029 μm3 mm-2 and 31306 μm3 mm-2 and 26285 μm3 mm-2"}, {"measurement": "Biovolume of P. aeruginosa", "setting": "P. aeruginosa PAO1 [2]; ΔtlpQ, 10 h", "value": "645081 μm3 mm-2 and 690688 μm3 mm-2 and 715157 μm3 mm-2"}, {"measurement": "Biovolume of P. aeruginosa", "setting": "P. aeruginosa PAO1 [2]; ΔtlpQ, 19 h", "value": "1292148 μm3 mm-2 and 1288991 μm3 mm-2 and 1359959 μm3 mm-2"}, {"measurement": "Kd", "setting": "PctA-LBD R126A", "value": "49 µM and 33 µM and 41 µM"}, {"measurement": "Kd", "setting": "LsrB", "value": "0.19 to 0.81", "unit": "µM"}, {"measurement": "Concentration of c-di-GMP", "setting": "rpHK1S-Z16; 100 μM DPD/AI-2, 30 min", "value": "25.52 µM and 26.85 µM and 25.80 µM"}, {"measurement": "Concentration of c-di-GMP", "setting": "rpHK1S-Z16; 100 μM DPD/AI-2, 60 min", "value": "33.20 µM and 34.39 µM and 33.48 µM"}, {"measurement": "Concentration of c-di-GMP", "setting": "rpHK1S-Z16; 200 μM DPD/AI-2, 30 min", "value": "34.46 µM and 32.43 µM and 32.71 µM"}, {"measurement": "Concentration of c-di-GMP", "setting": "rpHK1S-Z16; 200 μM DPD/AI-2, 60 min", "value": "45.28 µM and 43.18 µM and 41.92 µM"}, {"measurement": "Kd", "setting": "PctA-LBD", "value": "0.12 µM and 0.16 µM and 0.13 µM"}]}]}
